Assay results reported in PubChem BioAssay (NCI).
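Growth conditions: 96-well plates. Treatment: test compound, 48 hours, 5 concentrations. Analysis: linear interpolation between bracketing concentrations; unreached endpoints set to highest concentration. Abbreviation: GI50, concentration required for 50% inhibition of growth. TGI marks complete inhibition of growth.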

How the values were obtained:
Assay in all cases: NCI anticancer screen, dose series, 48 h
[1] = test system: HL-60(TB) leukemia
[2] = test system: HOP-92 NSCLC
[3] = test system: 786-0 renal
[4] = test system: HCT-15 colon
[5] = test system: M14 melanoma
[6] = test system: DU-145 prostate
[7] = test system: UACC-257 melanoma
[8] = test system: OVCAR-8 ovarian
[9] = test system: SNB-19 CNS
[10] = test system: COLO 205 colon
[11] = test system: HCT-116 colon
[12] = test system: BT-549 breast
[13] = test system: A498 renal
[14] = test system: SF-539 CNS
[15] = test system: T-47D breast
[16] = test system: SW-620 colon
[17] = test system: OVCAR-4 ovarian
[18] = test system: SR leukemia
[19] = test system: SF-295 CNS
[20] = test system: U251 CNS
[21] = test system: MALME-3M melanoma
[22] = test system: MDA-MB-231 breast
[23] = test system: NCI/ADR-RES ovarian
[24] = test system: UO-31 renal
[25] = test system: KM12 colon
[26] = test system: K-562 leukemia
[27] = test system: HT29 colon
[28] = test system: NCI-H460 lung

## Cc1nc(-c2cc3ccccc3oc2=O)ccc1C(=O)/C=C/c1ccccn1
[1]
  GI50: > 100 µM
  TGI: > 100 µM
[2]
  GI50: 7.25 µM
  TGI: > 100 µM
[3]
  GI50: > 100 µM
  TGI: > 100 µM
[4]
  GI50: > 100 µM
  TGI: > 100 µM
[5]
  GI50: > 100 µM
  TGI: > 100 µM
[6]
  GI50: > 100 µM
  TGI: > 100 µM
[7]
  GI50: > 100 µM
  TGI: > 100 µM
[8]
  GI50: > 100 µM
  TGI: > 100 µM
[9]
  GI50: > 100 µM
  TGI: > 100 µM
[10]
  GI50: > 100 µM
  TGI: > 100 µM
[11]
  GI50: 6.34 µM
  TGI: > 100 µM
[12]
  GI50: > 100 µM
  TGI: > 100 µM
[13]
  GI50: > 100 µM
  TGI: > 100 µM
[14]
  GI50: > 100 µM
  TGI: > 100 µM
[15]
  GI50: > 100 µM
  TGI: > 100 µM
[16]
  GI50: 6.77 µM
  TGI: > 100 µM
[17]
  GI50: > 100 µM
  TGI: > 100 µM
[18]
  GI50: 5.3 µM
  TGI: > 100 µM
[19]
  GI50: > 100 µM
  TGI: > 100 µM
[20]
  GI50: 8.49 µM
  TGI: > 100 µM
[21]
  GI50: > 100 µM
  TGI: > 100 µM
[22]
  GI50: > 100 µM
  TGI: > 100 µM
[23]
  GI50: > 100 µM
  TGI: > 100 µM
[24]
  GI50: > 100 µM
  TGI: > 100 µM
[25]
  GI50: > 100 µM
  TGI: > 100 µM
[26]
  GI50: 6.47 µM
  TGI: > 100 µM
[27]
  GI50: > 100 µM
  TGI: > 100 µM
[28]
  GI50: > 100 µM
  TGI: > 100 µM
